Data published in patent US11318141B2, “Methods and compositions related to STK1-targeted small molecules as antibiotic resistance breakers” (Ohio State Innovation Foundation, priority 2017, dated 2022).

Columns and labels:
S. aureus MW2-WT [1] = assay: Time-to-kill assay (OD and CFU counts over 16 h), broth dilution; assay type: cell-based, Staphylococcus aureus
Protocol: FIGS. 4A-F show. […] Optical Density and corresponding Colony forming units of (C and D) MW2-WT and (E and F) MW2ΔSTK1 cultures in the presence or absence 50 μM Inh2-B1, 1.51 μM (1 μg/ml) Ceftriaxone, 2.125 μM (1 μg/ml) Cefotaxime, and combination of Inh2-B1 plus Ceftriaxone, and Inh2-B1 plus Cefotaxime. The experiments were carried out as described in the Materials and Method section using Muller-Hinton broth and seeded with 4×10^6 CFUs of S. aureus MW2-Wild type or MW2ΔSTK1 strains per well. Each data points represent Mean±S.D. P values of significance (**=<0.01, ***=<0.001) were determined using the t-test with Welch's corrections. NS—Not significant.
(§1) Subsequently, the susceptibility of S. aureus MW2 strain to Ceftriaxone, Cefotaxime, Inh2, and Inh2-B1 was confirmed by the CLSI recommended serial dilution method using Muller Hinton broth. Minimum bactericidal activity (MBC) was measured using Muller-Hinton agar. Changes in the MBC of Ceftriaxone/Cefotaxime in the presence of serially diluted Inh2-B1 was determined in two steps. Initial screening was carried out using the Checkerboard method using Muller-Hinton agar (FIG. 15). […] Subsequent time to kill assays were carried out using 50 μM Inh2-B1 and Ceftriaxone. Cefotaxime (1 μg/ml) in a final volume of 250 μl using a sterile 96-well (U-bottom) microtiter plate over a period of 16 h at 37° C. under constant rotation (120 rpm). Optical density and corresponding CFU counts were measured at every two-hour interval up to 8 hours with a final overnight reading at the end of incubation period. CFU counts were measured using appropriate dilution of 10 μl of properly mixed samples at each time interval. All experiments were performed in three biological replicates and the statistical analysis of the results obtained at each time point was carried out by the non-parametric t-test with Welch's correction using GraphPad Prism 6 software.

[2] = target: S. aureus STKK1 (the soluble kinase domain of STK1, 280 aa) (Staphylococcus aureus, UniProt A0ABF7PGK0); assay: In vitro kinase assay: inhibition of autophosphorylation of recombinant STKK1 (γ32P-ATP); assay type: biochemical; conditions: after 5 min pre-incubation
Protocol: For the present study, recombinant His-tag-STKK1 was created along with part of the adjacent juxta-membrane domain (1-280 aa) using the pET14b vector system and specific primers (Table-1 and Table-2) as described previously. The recombinant proteins were expressed in BL21 DE3 (pLysS) and purified using Ni^+2-NTA-affinity chromatography, dialyzed against 10 mM Tris/HCl, pH 7.5, and stored as 10% glycerol stock (500 μg/ml) at −20° C. as described previously. In vitro kinase assays were performed using 2 μg STKK1 in the presence of 1 μCi γ^32P-ATP (specific activity 3000 Ci/mMol, PerkinElmer) at 30° C. for 45 min in a final volume of 30 μl phosphorylation buffer (50 mM Tris/HCl, pH7.5, 1 mM dithiothreitol, 5 mM MgCl2, and/or 5 mM MnCl2). The inhibition of autophosphorylation of STKK1 was carried out using this assay in the presence and absence of (50 μM) individual members of the 32 prescreened small molecule compound library. Phosphorylated proteins were separated by SDS-PAGE and subsequently identified by using Coomassie stain and autoradiography. The individual phosphorylated protein bands were then excised and subjected to radioactive counting using beta-scintillation counter for quantitative analysis. Experiments were repeated at least three times for statistical analysis.

S. aureus MW2 = assay: Broth dilution susceptibility / growth inhibition assay, Muller Hinton broth; assay type: cell-based, Staphylococcus aureus; conditions: growth inhibition of S. aureus MW2
Protocol: as §1

S. aureus MW2-WT [3] = assay: S. aureus mouse septicemia model, therapeutic study; assay type: in vivo, CD-1 mice
Protocol: The virulence potential of the wild-type S. aureus MW2 wild-type and corresponding MW2ΔSTK1 and MW2ΔSTP1 mutants was assessed using the mouse-septicemia model. CD-1 mice (5 weeks old, 20-22 g. Charles River Laboratories, ten female mice/group and housed in a group of 5 mice/cage) were lightly anesthetized with isoflurane and injected retro-orbitally with the S. aureus MW2 or isogenic MW2Δstk1 mutant (4×10^8 CFU/0.1 ml of PBS). […] For therapeutic studies, the animals were first challenged with MW2-WT strain as described above and subsequently administered with antibiotic and/or small molecule compounds. The latter was started 4 h after the challenge and subsequently 12 h apart for 4 days post infection. Thus, Inh2-B1 (5 mg/kg body weight in 0.3 ml vehicle buffer), Ceftriaxone (10 and 25 mg/kg body weight in 0.3 ml vehicle buffer). Cefotaxime (10 mg/kg body weight), combination of Ceftriaxone (10 mg and 25 mg/kg body weight in 0.3 ml vehicle buffer) or Cefotaxime (10 mg/kg body weight) with Inh2-B1 (5 mg/kg body weight in 0.3 ml vehicle buffer), or 0.3 ml of vehicle-buffer (50 mM Tris/HCl, pH 8.8, 1.67% [v/v] DMSO). Early removal and euthanasia criteria were applied to all experimental mice showing penultimate sign(s) of the unrecoverable stage of illness, including ruffled skin with a hunch back, loss of more than 20% of body mass as compared to unchallenged mice receiving mock treatment, dyspnea, and labored gasping. All experiments were performed twice. Data were combined, and percentage survival in each group was statistically evaluated by the Log-Rank test (Kaplan-Meier) using the GraphPad Prism 6 software. P<0.05 was treated as a significant difference. On Day 3 P.I., 3-6 mice from different groups receiving treatment with a single antibiotic or combination therapy were euthanized and sacrificed, and kidneys were […] for determining the bacterial load, which was determined by counting the colony forming units in the homogenized tissue in sterile PBS buffer.

[4] = Inh2-B1 5 mg/kg plus Cefotaxime 10 mg/kg

Sequence of S. aureus STKK1 (the soluble kinase domain of STK1, 280 aa) (A0ABF7PGK0 entry or part of it): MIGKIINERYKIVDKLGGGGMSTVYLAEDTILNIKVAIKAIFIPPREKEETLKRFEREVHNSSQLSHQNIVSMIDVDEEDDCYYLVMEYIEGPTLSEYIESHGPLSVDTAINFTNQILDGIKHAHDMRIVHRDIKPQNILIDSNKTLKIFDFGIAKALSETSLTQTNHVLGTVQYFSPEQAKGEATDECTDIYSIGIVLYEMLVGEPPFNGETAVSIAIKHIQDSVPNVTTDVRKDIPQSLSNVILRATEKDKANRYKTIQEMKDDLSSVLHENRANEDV

COC(=O)c1ccc2c(=O)[nH]c3c(C(=O)Nc4ccccc4)sc(=S)n3c2c1 [Inh2-B1, Methyl 5-oxo-3-(phenylcarbamoyl)-1-thioxo-4,5dihydro[1,3]thiazolo[3,4-a]quinazoline-8-carboxylate]
log increase in growth from starting inoculum (S. aureus MW2-WT [1]; 100 μM Inh2-B1, 16 h): more than 3 log
CFU count of MW2-WT after growth (S. aureus MW2-WT [1]; 100 μM Inh2-B1, 16 h, starting inoculum 4×10^6 CFU): 1.8±1.0×10^9 CFU
growth pattern of the MW2 wild-type in the presence of Inh2-B1 (S. aureus MW2-WT [1]; FIGS. 4A and 4B, mimicked MW2ΔSTK1): slightly retarded
growth of the MW2 wild-type, mixture (S. aureus MW2-WT [1]; mixture of 1.5 μM Ceftriaxone (1 μg/ml) and 50 μM Inh2-B1): dramatically inhibited
growth pattern of the wild-type, single agent (S. aureus MW2-WT [1]; only 50 μM Inh2-B1, only 1.5 μM Ceftriaxone (1 μg/ml) or only 3 μM Cefotaxime (1 μg/ml), 16 h): remained unaltered
log reduction in comparison to the wild-type (S. aureus MW2-WT [1]; very high concentration (100 μM) of Inh2-B1): ~2 log
IC50 [2]: 49 µM
concentration at which S. aureus MW2 still grows (S. aureus MW2): > 50 µM
number of survived animals at the end of 10 days, Cefotaxime combination compared with Ceftriaxone combination (S. aureus MW2-WT [3]; [4]): significantly low
survival of mice, combination therapy with Cefotaxime (Inh2-B1+CT) (S. aureus MW2-WT [3]; [4]): significantly prolonged the survival of mice
survival, combination therapy with Ceftriaxone (S. aureus MW2-WT [3]; Inh2-B1 5 mg/kg plus Ceftriaxone 10 or 25 mg/kg i.p., ten days): 60%
S. aureus MW2 burden in kidneys (S. aureus MW2-WT [3]; day 3 P.I., combined therapy (Inh2-B1 with Ceftriaxone or Cefotaxime) vs single or no therapy): significantly low
